Reference: article PMC11671526, “β-caryophyllene sensitizes hepatocellular carcinoma cells to chemotherapeutics and inhibits cell malignancy through targeting MAPK signaling pathway” (Frontiers in Pharmacology, 2024)

Test system: HepG2 cells
Experiment: RNA-seq transcriptome analysis of differentially expressed genes
Type: cell-based, human
Conditions: BCP vs control HepG2, RNA-seq
Procedure: The quality and concentration of RNA were examined by MOPS RNA electrophoresis and Eppendorf BioSpectrometer. The transcriptome analysis was performed by BGI-Wuhan China. The RNA-seq dataset of this study is accessible in the Gene Expression Omnibus (GEO) with an access number of GSE276099. The sequence library for each sample was prepared using the BGISEQ-500 platform with a 50-bp single-end (SE50) format. […]2.2.1) was used to align the clean reads to the reference genome and alignment of the clean reads to the reference genes was carried out using Bowtie2 (v2.4.5) ([Langmead and Salzberg, 2012]; [Kim et al., 2015]). Gene expression levels were calculated by RSEM (v1.3.1) ([Li and Dewey, 2011]). Analysis of differential gene expression was performed using edgeR in the Bioconductor software package ([Robinson et al., 2010]). Using a standard protocol, the RNA samples were also examined by reverse transcription and quantitative polymerase chain reaction (RT-qPCR). In brief, for reverse transcription, total RNA (1 μg) and gDNA wiper Mix were incubated at 42°C for 2 min. The samples were immediately incubated with a master mix containing 10 pmol/μL of poly (dT) primers at 37°C for 15 min and 85°C for 5 s. To detect the expression of specific genes by qPCR analysis, gene-specific primers (shown in Supplementary Table S1) were mixed with the ChamQ Universal SYBER qPCR Master Mix and the reaction was conducted using the Roche Lightcycler 480. The GAPDH value was used to normalize the results of each gene. The RNA-seq data of BCP-treated HepG2 cells were screened for DEGs. Gene symbols were turned into Enterz ID using the org.Hs.eg.db Bio-conductor R package. The cluster profiler (v4.6.2) package was used to perform the Kyoto Encyclopedia of Genes and Genomes (KEGG) and Gene Ontology (GO) enrichment analyses ([Wu et al., 2021]). Following the Transcript per million (TPM) data of the dataset, the line chart, and heatmap were plotted using ggplot2 and pheatmap R packages, respectively.

Compound: C=C1CC/C=C(\C)CC[C@@H]2[C@@H]1CC2(C)C [BCP, β-caryophyllene]
- ODAD2 change: Up
- ODAD2 logFC: 0.6018
- PADI1 change: Down
- PADI1 logFC: -0.911
- PAN2 change: Up
- PAN2 logFC: 0.6394
- PAPLN change: Up
- PAPLN logFC: 0.648
- PARP10 change: Up
- PARP10 logFC: 0.961
- PDZK1IP1 change: Up
- PDZK1IP1 logFC: 0.6396
- PERM1 change: Up
- PERM1 logFC: 0.9379
- PGF change: Down
- PGF logFC: -1.184
- PGGHG change: Up
- PGGHG logFC: 0.7209
- PID1 change: Down
- PID1 logFC: -0.6654
- PLCD4 change: Down
- PLCD4 logFC: -1.595
- PLCH1 change: Up
- PLCH1 logFC: 1.418
- PLEKHF1 change: Up
- PLEKHF1 logFC: 0.8594
- PLEKHN1 change: Up
- PLEKHN1 logFC: 0.6105
- POU2F3 change: Down
- POU2F3 logFC: -1.5108
- PRDM12 change: Down
- PRDM12 logFC: -1.2196
- PRIMPOL change: Up
- PRIMPOL logFC: 0.639
- PROB1 change: Down
- PROB1 logFC: -0.6611
- PRSS56 change: Up
- PRSS56 logFC: 0.9346
- PTP4A3 change: Up
- PTP4A3 logFC: 0.9798
- PTPRR change: Up
- PTPRR logFC: 1.308
- RAET1E change: Down
- RAET1E logFC: -0.794
- RAET1L change: Down
- RAET1L logFC: -0.9044
- RASD2 change: Down
- RASD2 logFC: -0.5906
- RASL11A change: Down
- RASL11A logFC: -0.8207
- RHBDL3 change: Down
- RHBDL3 logFC: -0.6105
- S1PR1 change: Down
- S1PR1 logFC: -1.034
- SH2D5 change: Up
- SH2D5 logFC: 0.5827
- SHC3 change: Down
- SHC3 logFC: -0.7485
- SLC4A11 change: Down
- SLC4A11 logFC: -0.655
- SLC6A12 change: Down
- SLC6A12 logFC: -3.144
- SLC6A16 change: Down
- SLC6A16 logFC: -0.7923
- SLC12A3 change: Down
- SLC12A3 logFC: -0.7354
- SLC25A41 change: Down
- SLC25A41 logFC: -0.9215
- SMC1B change: Up
- SMC1B logFC: 1.162
- SMPDL3A change: Down
- SMPDL3A logFC: -0.7314
- SORBS1 change: Up
- SORBS1 logFC: 0.6679
- SP6 change: Down
- SP6 logFC: -0.8849
- ST3GAL5 change: Down
- ST3GAL5 logFC: -0.6552
- STAC change: Down
- STAC logFC: -0.9497
- STXBP6 change: Down
- STXBP6 logFC: -0.6612
- SYTL4 change: Down
- SYTL4 logFC: -1.384
- TCF7 change: Up
- TCF7 logFC: 0.7392
- TESPA1 change: Down
- TESPA1 logFC: -0.7534
- TEX9 change: Up
- TEX9 logFC: 0.7307
- TGFA change: Down
- TGFA logFC: -0.6404
- THRB change: Down
- THRB logFC: -0.6974
- TIAF1 change: Down
- TIAF1 logFC: -0.9875
- TLN2 change: Up
- TLN2 logFC: 0.6813
- TMEM17 change: Up
- TMEM17 logFC: 0.6031
- TMEM121 change: Down
- TMEM121 logFC: -0.7343
- TMEM158 change: Down
- TMEM158 logFC: -0.7403
- TMEM213 change: Down
- TMEM213 logFC: -1.017
- TMIE change: Up
- TMIE logFC: 1.064
- TMPPE change: Down
- TMPPE logFC: -0.812
- TNFRSF14 change: Up
- TNFRSF14 logFC: 1.214
- TOX change: Up
- TOX logFC: 0.9011
- TRABD2B change: Up
- TRABD2B logFC: 0.6053
- TSHZ2 change: Up
